{"source": "patent US11104589B2", "about": "“Recycling method of amphiphilic surface-active pollutants in water” (INSTITUTE OF PROCESS ENGINEERING, CHINESE ACADEMY OF …, priority 2018, dated 2021)", "tested_on": "Human lung cancer cell line A549 cells", "test": "MTT cytotoxicity assay", "assay_type": "cell-based", "details": "24 hours incubation", "experimental": "Human lung cancer cell line A549 cells were grown in DMEM medium supplemented with 10% (v/v) of fetal bovine serum (FBS) and 1% of penicillin streptomycin. A549 was first incubated at 37° C. for 24 hours with a density of 5000 cells per well. After being washed with phosphate buffered saline (PBS, pH=7.4), A549 cells were incubated together with 200 μL of medium having various concentrations for 24 hours (15 μ[…]). Three sets of parallel replicates were prepared for each concentration. Then, the medium was removed and replaced with 20 μL of MTT solution (5 mg/mL). A549 cells were further incubated for 3 hours. The medium having MTT was removed and replaced with 100 μL of DMSO. The plate was then shaken for 10 minutes. To assess cell viability, the optical density of the mixture at 492 nm was measured by an enzyme-linked immunosorbent assay spectrophotometer (infinite […]). For labeling, A549 cells were incubated at 37° C. for 24 hours in a cell culture dish with glass bottom at a density of 5000 cells/well and then mixed with prepared FCNs samples. […] The cell culture dish with glass bottom was covered with a tin foil until cell images were obtained by fluorescence microscopy under excitation at 408 nm, 488 nm and 561 nm.", "data": [{"smiles": "CCCCCCCCC(=O)O", "note": "[nonanoic acid]", "values": [{"measurement": "toxicity to the cells (cytotoxicity, MTT)", "setting": "concentration greater than 3840 μM", "value": "significant toxicity to the cells"}, {"measurement": "effect on cell viability (cytotoxicity, MTT)", "setting": "low concentration (15-240 μM)", "value": "almost no effect on cell viability"}]}]}
